Tested on: PRKACA-PRKAR2A interaction (SmBiT-PRKACA / LgBiT-PRKAR2A), protein kinase A
Parameters: NanoLuc complementation counter-screen in cell extract, PRKACA with PRKAR2A, loss of luminescence, detects NanoLuc interference
Conditions: 0.5 h, 20 µM; inhibitor

Row | Structure (SMILES) | Inh (PKA)
1 | CC(C)(O)/C=C/C(=O)[C@](C)(O)[C@H]1[C@H](O)C[C@@]2(C)[C@@H]3CC=C4[C@@H](C=C(O)C(=O)C4(C)C)[C@]3(C)C(=O)C[C@]12C [UM0141852:01, Cucurbitacin I] | -0.1004%

Same assay, conditions: counter-screen for NanoLuc interference; 0.5 h, 20 µM; inhibitor

Row | Inh (PKA) | Structure (SMILES)
2 | 18.44% | COc1ccc(CCc2nc3cc(-c4c(C)noc4C)ccc3n2C[C@H](C)N2CCOCC2)cc1Cl [UM0141843:01, SGC-CBP30]
3 | 2.048% | CC(=O)SCC(=O)c1ccc(NS(=O)(=O)c2ccc(OCCCN(C)C)cc2)nc1 [UM0141844:01, KD 5170]
4 | -1.396% | Cc1cc(C)cc(C(=O)NOCCCCCC(=O)NO)c1 [UM0141845:01, LMK 235]
5 | 6.356% | Cc1ccc(NC(=O)CCCCCC(=O)Nc2ccccc2N)cc1 [UM0141846:01, TC-H 106]
6 | 3.563% | COc1cc2c(NC3CCN(C)CC3)nc(N3CCCN(C)CC3)nc2cc1OCCCN(C)C [UM0141847:01, UNC 0224]
7 | 19.45% | O=S(=O)(NCCSSCCNS(=O)(=O)c1cc(Cl)ccc1Cl)c1cc(Cl)ccc1Cl [UM0141849:01, KC7F2]
8 | 8.312% | C=CC(=O)c1ccc2ccccc2c1 [UM0141853:01, ZM 449829]
9 | 47.09% | N#Cc1c(-c2ccccc2)cc(-c2cc(Br)ccc2O)[nH]c1=O [UM0141854:01, TCS PIM-1 1]
10 | 17.99% | COc1ccc(-n2c(SCCCN3C(=O)c4cccc5cccc(c45)C3=O)nnc2-c2ccncc2)cc1 [UM0141857:01, WIKI4]
11 | 56.23% | O=C(/C=C/c1ccccc1)NC(NC(=S)Nc1ccc(Cl)cc1)C(Cl)(Cl)Cl (stereo not drawn) [UM0141858:01, Sal 003]
12 | 48.34% | O=S(=O)(O)c1ccc2cc(N=Nc3cc(S(=O)(=O)O)c4cccnc4c3O)ccc2c1 [UM0141859:01, NSC 87877]
13 | 6.685% | OC[C@H]1O[C@@H](c2ccc(Cl)c(Cc3ccc(O[C@H]4CCOC4)cc3)c2)[C@H](O)[C@@H](O)[C@@H]1O [UM0141860:01, Empagliflozin (BI 10773)]
14 | 38.44% | CC1(C)CNc2cc(NC(=O)c3cccnc3NCc3ccncc3)ccc21 [UM0141862:01, Motesanib Diphosphate (AMG-706)]
15 | 12.69% | CC(C)(C)c1cc(C(C)(C)C)c(NC(=O)c2c[nH]c3ccccc3c2=O)cc1O [UM0141863:01, Ivacaftor (VX-770)]
16 | 3.817% | OCCn1cc(-c2ccc3c(c2)CC/C3=N\O)c(-c2ccncc2)n1 [UM0141866:01, GDC-0879]
17 | 29.62% | CCn1c(-c2nonc2N)nc2c(C#CC(C)(C)O)ncc(OC[C@H]3CCCNC3)c21 [UM0141867:01, GSK690693]
18 | 1.476% | COc1ccc(-c2ccc3c(N4CCOCC4)nc(N4C[C@@H](C)O[C@@H](C)C4)nc3n2)cc1CO [UM0141868:01, KU-0063794]
19 | 8.714% | Cn1cc(-c2ccc3nnc(C(F)(F)c4ccc5ncccc5c4)n3n2)cn1 [UM0141869:01, JNJ-38877605]
20 | 1.023% | OCCn1cc(-c2cnc3nnn(Cc4ccc5ncccc5c4)c3n2)cn1 [UM0141870:01, PF-04217903]
21 | 0.8933% | CCc1c2c(nc3ccc(OC(=O)N4CCC(N5CCCCC5)CC4)cc13)-c1cc3c(c(=O)n1C2)COC(=O)[C@]3(O)CC [UM0141872:01, Irinotecan]
22 | 0.3149% | O=C1NC(=O)/C(=C\c2ccc3nccnc3c2)S1 [UM0141873:01, AS-605240]
23 | 72.93% | COC(=O)[C@H](c1ccccc1Cl)N1CCc2sccc2C1 [UM0141874:01, Clopidogrel]
24 | -0.0985% | C[C@H](Cn1cnc2c(N)ncnc21)OCP(=O)(O)O [UM0141875:01, Tenofovir]

Row | Structure (SMILES) | Inh (PKA)
25 | O=C1C2CCN(CC2)C1(CO)CO [UM0141841:01, PRIMA-1] | 1.308%
26 | COCC1(CO)C(=O)C2CCN1CC2 (stereo not drawn) [UM0141842:01, PRIMA-1MET] | 2.921%
27 | BrC1C(Br)C(Br)C(Br)C(Br)C1Br (stereo not drawn) [UM0141851:01, 1,2,3,4,5,6-Hexabromocyclohexane] | 6.156%

— PMC9995496, “A screen for MeCP2-TBL1 interaction inhibitors using a luminescence-based assay” (Scientific Reports, 2023)
